Laboratory results published in ChEMBL document CHEMBL1129358, “Esters and amides of 6-(chloromethyl)-2-oxo-2H-1-benzopyran-3-carboxylic acid as inhibitors of alpha-chymotrypsin: significance of the "aromatic" nature of the novel ester-type coumarin for strong inhibitory activity” (J Med Chem, 1996).
Calls of active or inactive are those of the source. The calls are words filed in the database; no cut-off is given here.

Tests used:
[1] = target: T1, Neutrophil elastase (Homo sapiens) (UniProt P08246); assay: Ratio between k observed and KI of Human leukocyte elastase (HEL);[…]
T1 sequence (whole entry): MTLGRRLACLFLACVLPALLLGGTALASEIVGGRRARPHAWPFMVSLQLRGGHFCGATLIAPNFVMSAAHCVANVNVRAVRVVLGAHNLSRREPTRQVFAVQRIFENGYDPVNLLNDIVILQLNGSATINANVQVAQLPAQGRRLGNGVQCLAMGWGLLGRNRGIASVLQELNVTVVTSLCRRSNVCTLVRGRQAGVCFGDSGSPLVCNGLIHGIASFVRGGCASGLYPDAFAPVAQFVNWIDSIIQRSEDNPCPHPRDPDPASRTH

Chymotrypsinogen A = Chymotrypsinogen A (Bos taurus, UniProt P00766); assay: Compound was tested for the binding affinity against alpha-chymotrypsin
[2] = target: Chymotrypsinogen A (Bos taurus) (UniProt P00766); assay: Compound was tested for the Inactivation of alpha-chymotrypsin
[3] = target: Chymotrypsinogen A (Bos taurus) (UniProt P00766); assay: Ratio between k inactivation and KI of alpha-chymotrypsin
[4] = target: T1, Neutrophil elastase (Homo sapiens); assay: Ratio between k observed and KI of Human leukocyte elastase (HEL)
[5] = target: Chymotrypsinogen A (Bos taurus) (UniProt P00766); assay: Ratio between k inactivation and KI of alpha-chymotrypsin; No inhibition
[6] = test system: alpha-chymotrypsin (Bos taurus); assay: Ratio between k observed and KI of bovine alpha-chymotrypsin at 20 degree C

| K obs / 1 [1] | K inact/Ki [3] [M⁻¹ s⁻¹] | Compound | other results |
| --- | --- | --- | --- |
| inactive | 114000 | Cc1ccccc1OC(=O)c1cc2cc(CCl)ccc2oc1=O | Ki (Chymotrypsinogen A): 0.38 µM; K inact [2]: 0.043 s⁻¹ |
| inactive | 6 | O=C(NCCc1ccccc1)c1cc2cc(CCl)ccc2oc1=O | – |
| inactive | 80 | C=CCNC(=O)c1cc2cc(CCl)ccc2oc1=O | – |
| inactive | 330 | O=C(Oc1ccc(Cl)cc1)c1cc2cc(CCl)ccc2oc1=O | – |
| inactive | 12 | CCCCCOC(=O)c1cc2cc(CCl)ccc2oc1=O | – |
| – | 80000 | O=C(Oc1ccccc1I)c1cc2cc(CCl)ccc2oc1=O | K obs / 1 [4]: 85 M⁻¹ s⁻¹; Ki (Chymotrypsinogen A): 0.25 µM; K inact [2]: 0.02 s⁻¹ |
| – | 48100 | O=C(Oc1ccccc1Cl)c1cc2cc(CCl)ccc2oc1=O | K obs / 1 [4]: 23 M⁻¹ s⁻¹; Ki (Chymotrypsinogen A): 0.79 µM; K inact [2]: 0.038 s⁻¹ |
| – | 100000 | O=C(Oc1ccccc1)c1cc2cc(CCl)ccc2oc1=O | K obs / 1 [4]: 23 M⁻¹ s⁻¹; Ki (Chymotrypsinogen A): 0.34 µM; K inact [2]: 0.034 s⁻¹ |
| inactive | 12 | COC(=O)CNC(=O)c1cc2cc(CCl)ccc2oc1=O | – |
| inactive | 1780 | O=C(Oc1ccc(I)cc1)c1cc2cc(CCl)ccc2oc1=O | – |
| inactive | – | CCCCCCCCCCNC(=O)c1cc2cc(CCl)ccc2oc1=O | – |
| inactive | – | O=C(O)c1cc2cc(CCl)ccc2oc1=O | K inact/Ki [5]: inactive |
| inactive | – | CCCCCNC(=O)c1cc2cc(CCl)ccc2oc1=O | K inact/Ki [5]: inactive |
| inactive | – | CC(C)NC(=O)c1cc2cc(CCl)ccc2oc1=O | K inact/Ki [5]: inactive |
| – | 763000 | O=C(Oc1cccc(Cl)c1)c1cc2cc(CCl)ccc2oc1=O | K obs / 1 [4]: 630 M⁻¹ s⁻¹ |
| – | 11300 | O=C(Oc1cccc([N+](=O)[O-])c1)c1cc2cc(CCl)ccc2oc1=O | K obs / 1 [4]: 500 M⁻¹ s⁻¹ |

| K obs / 1 [1] | K inact/Ki [3] [M⁻¹ s⁻¹] | Compound | other results |
| --- | --- | --- | --- |
| inactive | 110 | COC(=O)c1cc2cc(CCl)ccc2oc1=O | – |
| inactive | – | CNC(=O)c1cc2cc(CCl)ccc2oc1=O | K inact/Ki [5]: inactive |
| inactive | 71800 | Cc1cccc(OC(=O)c2cc3cc(CCl)ccc3oc2=O)c1 | – |
| – | 72100 | O=C(Oc1cccc(I)c1)c1cc2cc(CCl)ccc2oc1=O | K obs / 1 [4]: 85 M⁻¹ s⁻¹ |
| inactive | 186 | O=C(OCc1ccccc1)c1cc2cc(CCl)ccc2oc1=O | – |
| inactive | 424 | C=CCOC(=O)c1cc2cc(CCl)ccc2oc1=O | Ki (Chymotrypsinogen A): 33 µM; K inact [2]: 0.014 s⁻¹ |
| – | 24 | O=C(NCc1ccccc1)c1cc2cc(CCl)ccc2oc1=O | K obs / 1 [4]: 58 M⁻¹ s⁻¹ |
| inactive | 685 | Cc1ccc(OC(=O)c2cc3cc(CCl)ccc3oc2=O)cc1 | – |
| – | 7550 | Cc1cc(OC(=O)c2cc3cc(CCl)ccc3oc2=O)ccc1Cl | K obs / 1 [4]: 90 M⁻¹ s⁻¹ |
| inactive | 220 | CCOC(=O)c1cc2cc(CCl)ccc2oc1=O | Ki (Chymotrypsinogen A): 59 µM; K inact [2]: 0.013 s⁻¹ |
| inactive | 687 | CC(C)OC(=O)c1cc2cc(CCl)ccc2oc1=O | Ki (Chymotrypsinogen A): 16 µM; K inact [2]: 0.011 s⁻¹ |
| inactive | 32 | O=C(Nc1ccccc1)c1cc2cc(CCl)ccc2oc1=O | – |
| – | – | Cc1ccc2oc(=O)c(C(=O)Oc3ccccc3)cc2c1 | K obs / 1 [4]: 330 M⁻¹ s⁻¹; K inact/Ki [5]: inactive |
| inactive | 190 | CCCCCCCCOC(=O)c1cc2cc(CCl)ccc2oc1=O | – |
| – | – | O=c1ccc2cc(CBr)ccc2o1 | K obs / 1 [6]: 12.5 M⁻¹ s⁻¹ |
| inactive | 80 | COC(=O)C(Cc1ccccc1)NC(=O)c1cc2cc(CCl)ccc2oc1=O (stereo unspecified) | – |
